Experimental data from a melting point compilation (Tetko et al.; mined from patent text by program, amines drawn as free bases though some values may be those of a salt).

| Compound | melting point [°C] |
| --- | --- |
| CN1C(=O)CCCc2ccc(NC(=O)c3ccc(C(=O)O)cc3)cc21 | > 270 |
| COc1ccccc1Cc1cccc(-c2ncc3c(n2)CC(C)(C)CC3)n1 | 251 to 252 |
| CCOC(=O)C1=C(C)NC(C)=C(C(=O)c2ccco2)C1c1ccccc1[N+](=O)[O-] (stereo unspecified) | 133 to 134 |
| COc1ccc(N2C(=O)[C@@H](N3C(=O)c4ccccc4C3=O)[C@H]2/C=C/c2ccccc2)cc1 (relative stereo) | 202 to 203 |
| COc1cc2c(cc1OC)C(=O)C(=O)N(CCCN(C)CCCSc1cc(Br)c(N)c(Br)c1)CC2 | 118 to 125 |
| COc1ccc(F)cc1C(C)(C)CC(O)(Cn1cnc(=O)c2ccccc21)C(F)(F)F (stereo unspecified) | 118 to 121 |
| CS(=O)c1cc2ccccc2[nH]1 (stereo unspecified) | 140 to 144 |
| CSC1=NC(C)(C)CN1C(=O)Nc1c(C)cccc1C | 178 to 179 |
| COc1cccc([C@@]23CCC[C@@H]2CN(C)CC3)c1 (relative stereo) | 40 to 43 |
| COc1ccc(CN(C)C)cc1CO | 67 to 69 |
| CC(C)(C(N)=O)/C(F)=C(/F)c1ccc(Cl)cc1 | 99 |
| O=C(OCc1ccccc1)N1CCC(c2cc3ccccc3c(=O)[nH]2)CC1 | 179 to 181 |
| CN1CCc2cc(Cl)c(O)cc2[C@H](c2ccccc2)C1 | 188 to 189 |
| O=S1(=O)c2ccccc2Nc2nccnc21 | 316 to 318 |
| CC(C)N(CCn1c(CO)nc2c(N)nc3ccccc3c21)C(N)=O | > 240 |
| CCCC1(CCC)c2ccccc2-c2ccc(O)cc21 | 116 to 117 |
| CS(=O)(=O)c1nccn1CC(=O)O | 218 to 219 |
| COC(=O)Cn1c(Cc2ccccc2)ccc(N)c1=O | 134 to 136 |
| CN(C)C=C(C#N)C(=O)c1ccc(-n2ccnc2)cc1 | 165 |
| COc1ccc([N+](=O)[O-])cc1OC(F)F | 48 to 49 |
| CC(=O)N1CC(=O)Nc2ccccc21 | 164 to 165 |
| O=C(Cn1c(-c2ccc(Cl)cc2)nc2cccnc21)NC1=NCCS1 | 227 to 229 |
| CCON=C(C)C(C)=NOc1ncccc1C(=NOC)C(=O)NC | 110 |
| O=Cc1cccc2nnsc12 | 134 to 136 |
| Cc1cc(-c2cc(C(F)(F)F)n3ncc(-c4nc(-c5ccc(S(N)(=O)=O)cc5)no4)c3n2)ccc1C(F)(F)F | 273 |
| O=c1c(Cc2ccncc2)cc2cccnc2n1-c1cccc([N+](=O)[O-])c1 | 230 |

| Compound | melting point [°C] |
| --- | --- |
| Cc1nn(-c2ccccn2)c2nccc(O)c12 | 241 to 243 |
| O=C(O)c1nn(-c2ccc(Cl)cc2Cl)c2c1CCc1c(Br)csc1-2 | 239 to 242 |
| CON(C)Cc1nc2c(N)nc3cc(-c4cccnc4)cnc3c2n1CC(C)(C)O | 187 to 189 |
| CC(C)c1ccc(N(C)C)c(C(C)C)c1NC(=O)CN1CCN(CCSc2nc3ccccc3o2)CC1 | 159 to 161 |
| Cc1ccc(-c2c(Cl)nc3ncnn3c2Cl)c(F)c1 | 152 |
| CN1CCC(C2Cc3ccccc3C(=O)N2)CC1 (stereo unspecified) | 139 to 141 |
| COC1C(OC(=O)c2ccccc2)C(COC(=O)c2ccccc2)OC1n1cc([N+](=O)[O-])c(=O)[nH]c1=O (stereo unspecified) | 187 to 189 |
| CCC1(CC)Cc2cc(O)c(Cl)c(Cl)c2C1=O | 184 |
| CCCCn1c(=O)n(CC=C(C)C)c(=O)c2c1ncn2S(=O)(=O)c1ccc(OC)c(OC)c1 | 92 to 95 |
| COc1ccc(C=Cc2ccc(CO)cc2)cc1 | 200 to 202 |
| CNc1nc(C(C)c2ccc(-c3ccc(F)cc3)c(F)c2)c(C(=O)O)s1 (stereo unspecified) | 195 to 196 |
| COC1C(N2CCCC2=O)c2sccc2OC1(C)C (stereo unspecified) | 117 to 118 |
| CN(C(CCn1c(=O)[nH]c2ccsc2c1=O)C(=O)NO)S(=O)(=O)c1ccc(Oc2cccc(Cl)c2)cc1 (stereo unspecified) | 192 to 194 |
| CCOC(=O)c1ccc(-c2coc(-c3ccccc3)n2)cc1 | 110 to 112 |
| Cc1ccc(N(c2ccccc2)c2ccc(-c3ccc(-c4ccc(N(c5ccccc5)c5ccc(C)cc5)cc4)cc3)cc2)cc1 | 167 to 168 |
| CON=C(C(=O)OC)c1ccccc1ON=C(C)c1cccc(C)c1 | 90 |
| CC(C)(C)OC(=O)N1CC(O)C(N2CCC(Cc3ccc(Cl)cc3)CC2)C1 (stereo unspecified) | 99 to 102 |
| O=Cc1cccn2ccnc12 | 137 to 139 |
| CCOC(=O)c1cc(=O)nc2n1-c1ccccc1OC2 | 174 to 175 |
| Cc1ccc(S(=O)(=O)OCCN(CCOS(=O)(=O)c2ccc(C)cc2)Sc2ccccc2[N+](=O)[O-])cc1 | 91 to 93 |
| O=c1cc(O)c(=O)c2ccc(O)cc2[nH]1 | > 350 |
| Cc1oncc1C(=O)Nc1ccc(-n2nc(C(F)(F)F)cc2C2CC2)c(F)c1 | 125 to 128 |
| C[C@H]1COc2c(N3C[C@@H](N)[C@@H](C4CC4)C3)c(F)cc3c(=O)c(C(=O)O)cn1c23 | 218 to 220 |
| CC(C)(C)NC(=O)N(C=O)Oc1cc(Cl)ccc1Cl | 101 to 102 |
| CC(C)c1cc(S(=O)(=O)C(C)C)c(C(C)C)cc1C#N | 130 to 134 |
| O=C(Cl)C1CCN(c2cc(-c3ccccc3)nc3ccc(F)cc23)CC1 | 243 to 245 |

| Compound | melting point [°C] |
| --- | --- |
| COc1ccc(/C=C/C=C/C(=O)Oc2ccc([N+](=O)[O-])cc2)cc1 | 176 to 177 |
| O=C(c1ccc(Br)cc1)N1CCN(CCCN2CCN(C(=O)c3ccc(Br)cc3)CC2)CC1 | 170 to 173 |
| CCCCc1nc2c(N)nc3ccccc3c2n1CCCNS(=O)(=O)c1ccccc1 | 210 to 212 |
| COC(=O)c1ccc(Br)c(CBr)c1 | 100 to 101 |
| NC(=O)C(Nc1ccc2ccccc2c1)c1c(Cl)cccc1Cl (stereo unspecified) | 158 |
| COc1ccc(C(=O)P2(=O)Oc3ccccc3-c3ccccc32)c(OC)c1 (stereo unspecified) | 112 to 115 |
| COc1cc(C(=O)Nc2cccc3c2CCN(C)C3)cc(OC)c1OC | 143 |
| C[C@@H](O)[C@@H](OCc1ccccc1)[C@H](OCc1ccccc1)[C@@H](C)O | 46 to 50 |
| CCCNC(=O)CP(=O)(O)O | 155 to 160 |
| Fc1ccc(Nc2c3ccccc3nc3ccccc23)cc1 | 184 to 196 |
| O=C(O)C=CC(=O)OC1CCN(C(=O)Cn2c(=O)sc3ccc(Cl)cc32)CC1 | 197 to 198 |
| CCOP(=S)(OCC)Oc1cc(C(=O)OC)sc1C(=O)OC | 50 |
| Cc1ccc(N(c2ccc(-c3ccc(-c4ccc(N(c5ccc(C)cc5)c5ccc6c(c5)CCC6)cc4)cc3)cc2)c2ccc3c(c2)CCC3)cc1 | 207 to 208 |
| OC(CCN1CCN(c2cccc(C(F)(F)F)c2)CC1)COc1ccccc1 (stereo unspecified) | 83 to 84 |
| CC(=O)OC1(C)CCC2C3C(C#N)CC4=CC(=O)CCC4(C)C3CCC21C (stereo unspecified) | 211 to 216 |
| Cc1nc(N)nc(N)c1N=Nc1cccc(Cl)c1 | 249 |
| COc1ccc2c(c1)c(Cc1cc(=O)n(-c3cccc(C(F)(F)F)c3)[nH]1)c(C)n2C(=O)c1ccccc1 | 60 to 64.5 |
| CCOC1=CCC(NC(C)=O)CC1 (stereo unspecified) | 100 to 102 |
| Cn1nnc(-c2ccc3c(c2)c(C2=CCN(CCN4CCNC4=O)CC2)cn3-c2ccncc2)n1 | 177 to 178 |
| CCOC(=N)CC1(C)OCCc2c1[nH]c1ccccc21 (stereo unspecified) | 140 to 141 |
| Cc1csn(-c2ccc(Cl)cc2)c1=O | 157 to 159 |
| CC(=O)Nc1c(C(=O)c2cccc(O)c2)[nH]c2cc(Cl)ccc12 | 130 to 145 |
| O=C(Nc1nc2ccccc2s1)Nc1cccc2c1C1CCCCN1C2=O (stereo unspecified) | 260 |
| COC(=O)c1ccc(Br)cc1CBr | 78 to 79 |
| O=c1[nH]c(=O)n(CCCCBr)c2nccnc12 | 154 to 155 |
| N#Cc1ccccc1-n1nnc2cccnc21 | 177 to 179 |

| Compound | melting point [°C] |
| --- | --- |
| Cc1c(CC(C)(C)C(=O)O)n(Cc2ccc(Cl)cc2)c2ccc(OCc3ccc4ccccc4c3)cc12 | 152 |
| Ic1cccc(-c2nnc(-c3ccc4ccccc4c3)o2)c1 | 156 to 158 |
| O=C(O)c1ccc2c(c1)S(=O)(=O)c1ccccc1NC2 | 304 to 306 |
| NS(=O)(=O)c1cc(C(=O)O)cc([N+](=O)[O-])c1NCCc1ccccc1 | 208 |
| CCCN(CCCCNc1ncc(CC2CCCCC2)c(=O)[nH]1)c1ccccn1 | 62 to 64 |
| Cc1ccc(S(=O)(=O)OCCc2cc3c4ccccc4[nH]c(=O)n3n2)cc1 | 194 to 196 |
| CCN1CCCC1CNC(=O)c1ccc(O)c(Cl)c1 (stereo unspecified) | 228 |
| Cn1ccc(C(=O)O)c(OCc2ccccc2)c1=O | 129 to 130 |
| CCOC(=O)c1cc2c(nc1C)CCCC2 | 105 to 106 |
| COc1ccc(/C=C/C(=O)OCC(=O)COC(=O)/C=C/c2ccc(OC)cc2)cc1 | 146 to 148 |
| Cc1cc(SCc2cccc3nc(-c4ccc(C(F)(F)F)cc4)sc23)ccc1OCC(=O)O | 193 to 196 |
| CC(=O)OCS(=O)(=O)c1c(F)cc(-c2c(-c3ccccc3)noc2C)cc1F | 165 to 166 |
| Nc1ncc2c(n1)-c1cccnc1CC2 | 220 to 226 |
| CC1(c2ccc(F)cc2)Cc2cc(OCC(=O)O)c(Cl)c(Cl)c2C1=O (stereo unspecified) | 150 to 156 |
| Cn1cc(Oc2cc(Cl)ccc2Cl)c(=O)c(-c2cccc(C(F)(F)F)c2)c1 | 162 to 164 |
| COC(=O)CCCc1cc2nc(Cl)ccc2n1S(=O)(=O)c1cccc(C(F)(F)F)c1 | 97 |
| O=S(=O)(Nc1ccccc1NCCOc1ccc(Cl)cc1)c1ccc(Cl)cc1 | 158 |
| O=C(O)/C=C/c1cn(Cc2ccc(OCc3csc(-c4ccccc4)n3)cc2)nc1-c1cccs1 | 137 to 138 |
| CN(C)C(=O)c1ccccc1Sc1ccc(F)cc1[N+](=O)[O-] | 56 to 57 |
| N#Cc1ccc(-c2ccc(S(=O)(=O)N(CCO)CCO)cc2)[nH]c1=O | 226 to 228 |
| Oc1cc(O)n2nc(-c3ccc(F)cc3)c(-c3ccncc3)c2n1 | > 250 |
| O=Cc1cc(O)c(O)cc1Cl | 217 to 218 |
| CC(C)(C)c1cc(SCCOCC(=O)O)cc(C(C)(C)C)c1O | 86 |
